This is an account of results in ChEMBL document CHEMBL4673353, “Switching a Xanthine Oxidase Inhibitor to a Dual-Target Antagonist of P2Y and P2Y as an Oral Antiplatelet Agent with a Wider Therapeutic Window in Rats than Ticagrelor” (J Med Chem, 2020).

Bounds are passed on as bounds.

Series [1] in a line: Toxicity in Sprague-Dawley rat model of tail snip bleeding assessed as bleeding weight at 10 mg/kg, po administered via gavage as single dose measured within 2 hrs post tail snip(reference value: 0.08 g). The class given is organism-based. Conditions: in vivo.
A short description of series [2]: Solubility of compound. Format: physicochemical.
A short description of series [3]: Prodrug conversion in male Sprague-Dawley rat assessed as 1-[(4-Cyanobenzyl)oxy]-2-(3-cyanophenyl)-4-methyl-1H-imidazole-5-carboxylic acid formation at 10 mg/kg, po measured at 10 mins by LC-MS analysis. Conditions: in vivo. The class given is ADME, organism-based.
Series [4] is described as follows: Toxicity in Sprague-Dawley rat model of tail-snip bleeding assessed as increase in bleeding time at 10 mg/kg, po administered via gavage as single dose measured within 2 hrs post tail snip relative to control. The class given is organism-based. As to conditions: in vivo.
The nature of series [5]: Metabolic stability of compound in human liver microsomes assessed as intrinsic clearance per mg protein at 0.2 uM in presence of NADPH measured up to 90 mins by LC-MS/MS analysis. Format: ADME, Microsome. As to conditions: 1.5 h.
A short description of series [6]: Drug metabolism in human liver microsome assessed as 1-[(4-Cyanobenzyl)oxy]-2-(3-cyanophenyl)-4-methyl-1H-imidazole-5-carboxylic acid formation at 0.2 uM in presence of NADPH measured up to 90 mins by LC-MS/MS analysis. Conditions: microsomes, 1.5 h. Format: ADME.
For series [7], the system named is Rattus norvegicus. Briefly: Antithrombotic activity in FeCl3-induced Sprague-Dawley rat model of arterial thrombosis assessed as reduction in thrombus weight at 5 mg/kg, po qd administered as single dose for 7 days and measured 2 hrs post last dose. As to conditions: time 7 day. Format: functional. More on the design: scale not given: the % may be the effect or the level left.

Series [8] is described as follows: Acute toxicity in Kunming mouse assessed as behavioral abnormalities at 2000 mg/kg, ig administered as single dose monitored every day up to14 days. Format: organism-based. Conditions: in vivo, po, 336 h, time 14 day.
Series [9] has as its system Rattus norvegicus. Briefly: Antithrombotic activity in FeCl3-induced Sprague-Dawley rat model of arterial thrombosis assessed as reduction in thrombus weight administered orally once daily for 7 days and measured 2 hrs post last dose. Format: functional. Conditions: dose 5-20 mg/kg.
Series [10] can be described thus: Metabolic stability of compound in rat liver microsomes assessed as intrinsic clearance per mg protein at 0.2 uM in presence of NADPH measured up to 90 mins by LC-MS/MS analysis. Format: ADME, Microsome. Conditions: 1.5 h. (Liver microsomes are a subcellular fraction often used to study metabolism.)
Series [11] can be described thus: Toxicity in Sprague-Dawley rat model of tail-snip bleeding assessed as bleeding time at 10 mg/kg, po administered via gavage as single dose measured within 2 hrs post tail snip (reference value: 17.69 min). As to conditions: in vivo. The class given is organism-based.
Series [12] in a line: Toxicity in Sprague-Dawley rat model of tail snip bleeding assessed as increase in bleeding weight at 10 mg/kg, po administered via gavage as single dose measured within 2 hrs post tail snip relative to control. Format: organism-based. As to conditions: in vivo.
The target in series [13] is P2Y purinoceptor 12 (Homo sapiens, UniProt Q9H244). The series is described as follows: Antagonist activity at P2Y12 in human whole blood assessed as suppression of ADP-induced decrease in PGE1-induced VASP phosphorylation measured after 10 mins by immunostaining based flow cytometric analysis. The class given is tissue-based. Background: In flow cytometry, cells or beads pass a laser one at a time.
Sequence of P2Y purinoceptor 12 (Q9H244 whole entry): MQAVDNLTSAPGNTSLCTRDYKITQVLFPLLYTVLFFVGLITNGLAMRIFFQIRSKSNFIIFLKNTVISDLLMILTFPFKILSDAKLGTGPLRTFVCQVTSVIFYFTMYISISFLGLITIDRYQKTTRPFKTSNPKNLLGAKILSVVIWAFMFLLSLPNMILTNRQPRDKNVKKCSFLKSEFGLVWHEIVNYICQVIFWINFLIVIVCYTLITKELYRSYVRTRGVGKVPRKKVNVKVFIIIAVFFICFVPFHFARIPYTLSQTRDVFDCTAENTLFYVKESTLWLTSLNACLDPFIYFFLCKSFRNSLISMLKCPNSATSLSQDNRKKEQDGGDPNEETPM

The target of series [14] is T1, Cytochrome P450 2A6 (Homo sapiens, UniProt P11509).
T1 sequence (P11509 whole entry): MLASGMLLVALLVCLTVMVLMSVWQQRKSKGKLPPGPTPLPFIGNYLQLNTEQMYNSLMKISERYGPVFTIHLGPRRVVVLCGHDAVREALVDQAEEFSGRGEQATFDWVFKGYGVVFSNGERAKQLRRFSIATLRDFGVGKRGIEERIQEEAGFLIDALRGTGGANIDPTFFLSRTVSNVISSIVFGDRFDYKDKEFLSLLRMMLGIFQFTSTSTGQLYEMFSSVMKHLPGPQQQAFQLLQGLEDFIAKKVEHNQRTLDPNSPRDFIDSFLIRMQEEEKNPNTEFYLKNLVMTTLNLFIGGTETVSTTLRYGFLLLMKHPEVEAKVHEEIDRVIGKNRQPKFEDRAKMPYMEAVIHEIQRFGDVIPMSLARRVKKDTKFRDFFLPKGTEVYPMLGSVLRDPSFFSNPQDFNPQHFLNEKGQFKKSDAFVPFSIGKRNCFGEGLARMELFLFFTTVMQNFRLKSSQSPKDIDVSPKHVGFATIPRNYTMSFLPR
The series is described as follows: Inhibition of CYP2A6 in human liver microsomes using coumarin as substrate preincubated for 5 mins followed by NADPH generating system addition and measured after 120 mins by LC-MS/MS. Format: ADME.

A short description of series [15]: Clearance in male Sprague-Dawley rat at 10 mg/kg, iv administered as single dose by LC-MS analysis. Conditions: in vivo. The class given is ADME, organism-based.
The target of series [16] is Xanthine dehydrogenase/oxidase (Bos taurus, UniProt P80457). Briefly: Inhibition of bovine xanthine oxidase assessed as reduction in uric acid formation at 10 uM using xanthine as substrate preincubated for 15 mins followed by substrate addition measured at 30 sec interval for upto 2 mins by spectrophotometric analysis relative to control. As to conditions: cattle, time 17 min.
Sequence of Xanthine dehydrogenase/oxidase (P80457 whole entry): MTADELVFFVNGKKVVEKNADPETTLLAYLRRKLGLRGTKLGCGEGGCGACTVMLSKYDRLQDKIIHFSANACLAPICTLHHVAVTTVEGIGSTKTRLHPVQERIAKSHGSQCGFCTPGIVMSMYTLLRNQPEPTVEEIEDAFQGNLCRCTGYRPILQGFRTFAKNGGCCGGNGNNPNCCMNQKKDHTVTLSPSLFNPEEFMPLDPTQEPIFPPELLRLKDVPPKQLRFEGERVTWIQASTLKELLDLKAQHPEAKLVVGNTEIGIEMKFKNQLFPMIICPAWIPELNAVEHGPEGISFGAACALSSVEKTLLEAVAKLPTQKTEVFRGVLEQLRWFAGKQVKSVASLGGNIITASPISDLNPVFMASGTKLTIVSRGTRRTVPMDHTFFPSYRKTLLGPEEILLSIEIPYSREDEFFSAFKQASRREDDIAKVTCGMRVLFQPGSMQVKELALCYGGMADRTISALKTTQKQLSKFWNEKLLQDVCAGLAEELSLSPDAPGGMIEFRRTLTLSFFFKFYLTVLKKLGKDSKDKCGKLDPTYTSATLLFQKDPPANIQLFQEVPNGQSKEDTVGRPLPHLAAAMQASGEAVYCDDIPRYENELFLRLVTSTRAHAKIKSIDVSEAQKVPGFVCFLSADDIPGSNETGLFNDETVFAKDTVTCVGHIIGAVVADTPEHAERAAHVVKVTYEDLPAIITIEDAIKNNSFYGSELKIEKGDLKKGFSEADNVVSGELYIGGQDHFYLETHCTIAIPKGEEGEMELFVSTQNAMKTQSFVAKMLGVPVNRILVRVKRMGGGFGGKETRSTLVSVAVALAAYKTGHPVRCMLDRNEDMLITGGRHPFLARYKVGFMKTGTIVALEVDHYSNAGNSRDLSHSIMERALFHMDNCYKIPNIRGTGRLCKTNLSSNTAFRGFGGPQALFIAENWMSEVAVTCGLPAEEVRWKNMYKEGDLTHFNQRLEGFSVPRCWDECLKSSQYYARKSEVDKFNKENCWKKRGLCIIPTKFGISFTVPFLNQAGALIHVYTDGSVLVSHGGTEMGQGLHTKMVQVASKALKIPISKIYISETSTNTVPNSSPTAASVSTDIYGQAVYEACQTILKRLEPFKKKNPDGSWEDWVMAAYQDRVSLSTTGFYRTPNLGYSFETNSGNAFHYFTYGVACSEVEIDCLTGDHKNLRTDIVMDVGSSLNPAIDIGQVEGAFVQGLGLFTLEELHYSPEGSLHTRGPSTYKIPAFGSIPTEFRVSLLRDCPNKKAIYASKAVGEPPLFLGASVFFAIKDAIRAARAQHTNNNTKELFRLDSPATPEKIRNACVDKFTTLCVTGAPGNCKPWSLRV

The target in series [17] is Cytochrome P450 2C9 (Homo sapiens, UniProt P11712). The series is described as follows: Inhibition of CYP2C9 in human liver microsomes using tolbutamide as substrate preincubated for 5 mins followed by NADPH generating system addition and measured after 120 mins by LC-MS/MS. The class given is ADME.
Sequence of Cytochrome P450 2C9 (P11712 whole entry): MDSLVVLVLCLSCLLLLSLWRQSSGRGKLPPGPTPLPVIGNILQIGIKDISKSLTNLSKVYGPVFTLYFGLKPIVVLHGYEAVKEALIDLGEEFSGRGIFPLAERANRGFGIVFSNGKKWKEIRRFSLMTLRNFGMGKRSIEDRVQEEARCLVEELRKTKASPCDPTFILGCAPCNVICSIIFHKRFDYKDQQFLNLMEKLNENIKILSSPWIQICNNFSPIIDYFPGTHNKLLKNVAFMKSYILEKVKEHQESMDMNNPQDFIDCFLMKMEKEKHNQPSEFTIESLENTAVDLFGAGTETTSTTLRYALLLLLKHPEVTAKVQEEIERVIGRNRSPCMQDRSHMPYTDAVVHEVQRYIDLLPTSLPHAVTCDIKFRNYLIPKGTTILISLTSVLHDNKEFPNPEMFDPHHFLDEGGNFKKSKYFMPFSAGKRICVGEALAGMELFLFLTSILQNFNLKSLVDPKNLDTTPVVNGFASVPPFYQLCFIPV
Series [18] in a line: Cmax in male Sprague-Dawley rat at 10 mg/kg, iv administered as single dose by LC-MS analysis. Format: ADME, organism-based. More on the design: route intravenous, dose 10 mg/kg. As to conditions: in vivo.
The nature of series [19]: Stability of compound in rabbit plasma assessed as compound degradation at 10 uM incubated up to 45 mins by HPLC analysis. The class given is ADME, cell-free, Oryctolagus cuniculus. As to conditions: 0.75 h.
Series [20] is described as follows: Apparent volume of distribution in male Sprague-Dawley rat at 10 mg/kg, iv administered as single dose by LC-MS analysis. Conditions: in vivo, read-out: Vz. Format: ADME, organism-based.
Series [21] is described as follows: Antagonist activity at P2Y1 in rabbit platelet-rich plasma assessed as inhibition of ADP-induced increase in intracellular Ca2+ concentration preincubated for 5 mins followed by ADP addition and measured for 3 mins by fluo4 dye-based fluorescence assay. The class given is cell-free. As to conditions: Oryctolagus cuniculus.
The nature of series [22]: Stability of compound in rat plasma assessed as compound degradation at 10 uM incubated up to 45 mins by HPLC analysis. The class given is ADME, cell-free. Conditions: 0.75 h.
A short description of series [23]: Elimination half-life in male Sprague-Dawley rat at 10 mg/kg, iv administered as single dose by LC-MS analysis. The class given is ADME, organism-based. Conditions: in vivo, read-out: beta t1/2 (converted).
For series [24], the target named is Cytochrome P450 2E1 (Homo sapiens, UniProt P05181). Briefly: Inhibition of CYP2E1 in human liver microsomes using chlorzoxazone as substrate preincubated for 5 mins followed by NADPH generating system addition and measured after 120 mins by LC-MS/MS. Format: ADME.
Sequence of Cytochrome P450 2E1 (P05181 whole entry): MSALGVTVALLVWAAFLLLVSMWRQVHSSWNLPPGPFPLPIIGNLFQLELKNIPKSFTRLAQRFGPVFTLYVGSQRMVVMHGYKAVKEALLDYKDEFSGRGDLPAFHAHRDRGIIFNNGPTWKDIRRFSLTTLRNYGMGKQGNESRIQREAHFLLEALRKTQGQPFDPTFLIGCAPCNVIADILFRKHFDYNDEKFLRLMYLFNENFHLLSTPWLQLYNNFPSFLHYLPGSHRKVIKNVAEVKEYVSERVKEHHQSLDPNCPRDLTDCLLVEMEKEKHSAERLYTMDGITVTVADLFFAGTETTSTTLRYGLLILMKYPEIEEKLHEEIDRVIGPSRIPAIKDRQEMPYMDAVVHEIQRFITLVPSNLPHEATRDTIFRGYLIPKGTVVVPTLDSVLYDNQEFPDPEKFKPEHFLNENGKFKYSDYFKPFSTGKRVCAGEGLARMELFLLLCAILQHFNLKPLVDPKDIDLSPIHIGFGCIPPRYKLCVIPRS
Series [25] can be described thus: Tmax in male Sprague-Dawley rat at 10 mg/kg, iv administered as single dose by LC-MS analysis. Format: ADME, organism-based. Conditions: in vivo.

On to `CCOC(=O)c1c(C)nc(-c2cccc(C#N)c2)n1OCc1ccc(C#N)cc1`, for which the Activity is 0.4 g in series [1], 22.6% in series [7], “Non-Toxic” in series [8] and “Dose-dependent effect” in series [9] (time 7.0 day). Moreover, the solubility entry in [2] is “Insoluble”. Further, the Drug metabolism entry in series [3] and in [6] was “Metabolite_Detected” throughout. Further, the “fold change (FC)” value in series [4] was found to be 1.92; in series [12], 5. In addition, the CLH stood at 0.011 mL/min in [5] and 0.06 mL/min in series [10]. The ED50 in [9] (po, 168 h, time 7 day) is 20.8 mg/kg. In addition, the Time in [11] came to 33.94 min.
Take `Cc1nc(-c2cccc(C#N)c2)n(OCc2ccc(C#N)cc2)c1C(=O)O`: the IC50 in series [13] is 149 µM; in [14], over 10 µM; in series [17], over 10 µM; in [21], 2.59 µM; in series [24], over 10 µM. Besides, the clearance in series [15] is 50.5 mL/min/kg. The inhibition at 10 µM in [16] was under 50%. For the same molecule, the Cmax in series [18] was found to be 11200 ng/mL. Moreover, the Stabilty result in [19] and in series [22] was “Stable” in each case. Also, the Vd in series [20] stood at 21.3 L/kg. Further, in [23], the half-life was 4.89 h. For the same molecule, in [25], the Tmax was 8.4 min.

What is called ED50 is the dose at which the effect has come halfway, by size or by number of responders. Broadly, the IC50 is the midpoint of a concentration-inhibition curve. The clearance is the rate of elimination divided by the concentration. Broadly, the inhibition is the change of the read-out against control, counted positive when it falls. As usually defined, the Cmax is the peak of the concentration-time curve. A word on the Tmax: it is the time from dosing to the highest level.
